Experimental data taken from patent US8071321B2, “Methods for up-regulating antigen expression in tumors” (CytoCure LLC, priority 2002, dated 2011).

What was measured:
[1] = system: gp100 antigen in MU-X melanoma cells; assay: Flow cytometric analysis of gp100 (HMB) staining in MU-X low antigen-expressing cells; format: cell-based, human
Experimental: (§1) Determination of protein Antigen in Tumor Cells via Flow Cytometric Analysis: To evaluate expression of cytoplasmic Melan-A/MART-1 antigen in melanoma tumor cell lines, cells were first fixed for 10′ in 1% paraformaldehyde; the cells are pelleted and incubated for 5′ in 0.1% saponin prior to washing and addition of monoclonal antibody specific for Melan-A/MART-1, A-103 (Ramirez-Montagut, et al., supra) for 45′ at 22° C. Following two washes, the cells were stained for 30′ with FITC-conjugated goat-anti-mouse Ig antibody (DAKO, Carpenteria, Calif.) prior to fixation in 1% paraformaldehyde and analysis by flow cytometry (FACScan, Becton-Dickinson, Mt. View, Calif.). Histograms of fluorescence staining were generated for comparison of anti-Melan-A/MART-1 staining of various cell populations. Mean channel fluorescence was calculated using the “LYSIS” software provided by the manufacturer. Gp100 expression was determined similarly using the HMB45 monoclonal antibody.

[2] = system: Melan-A/MART-1 in MITF-M transfected MU-X tumor cells; details: 24 hours, U0126 10 μM (FIG. 6)
Experimental: (§2) Primers were designed from appropriate GenBank mRNA and genomic entries and designed to be intron-spanning to prevent simultaneous amplification of traces of genomic DNAs. Where this was not possible RNAs were treated with RNase-free DNase I and repurified.
(§3) To express MITF-M in cell lines expressing low levels of Melan-A/MART-1, MITF-M coding sequence was amplified from MITF-M-positive cells and cloned in an SV40-promoter expression vector (pSV21ink); translation of the MITF-M insert uses optimal Kozak initiation signals (Kozak (1999). Gene 234:187). Constructs were transfected into low-Melan-A/MART-1 expressor melanoma (MU-X and A375). In all studies controls comprised empty vector, transfection reagents in the absence of added DNA, and corresponding untransfected cells. Data shown in FIG. 6 for A375 and MU-X tumor cells transfected with MITF-M for 24 hours in the presence (10 μM) or absence of U0126 before PCR amplification of Melan-A/MART-1.

[3] = system: Melan-A/MART-1 in MITF-M transfected A375 tumor cells; details: 24 hours, U0126 10 μM (FIG. 6)
Experimental: as §2, §3

[4] = system: gp100 antigen in MU-89 melanoma cells; assay: Flow cytometric analysis of gp100 (HMB45 staining) in MU-89 cells; format: cell-based, human; details: HMB 45 staining, control MU-89 41.6
Experimental: as §1

[5] = system: melanocyte-related genes in MU-89 cells; assay: RT-PCR of melanoma gene expression in MU-89 cells; format: cell-based, human; details: MU-89 cells (FIG. 5)

Nc1ncn([C@H]2C[C@H](O)[C@@H](CO)O2)c(=O)n1 [5 azadeoxycytidine]
effect on interferon-beta induced gp100 expression ([1]; gp100 (HMB) staining (FIG. 4)): augmented

Nc1ncn([C@@H]2O[C@H](CO)[C@@H](O)[C@H]2O)c(=O)n1 [5-AZA, 5-azacytidine]
gp100 mean channel fluorescence ([1]; MU-X cells, 5-AZA 40uM, MU-X control 12.8): 39.0

N#CC(=C(/N)Sc1ccccc1N)/C(C#N)=C(\N)Sc1ccccc1N [U0126]
Melan-A/MART-1 expression [2]: augmented enhancement
Melan-A/MART-1 expression [3]: augmented enhancement

B1: OSM: Recombinant human oncostatin M (rhOSM) from R&D Systems (protein, UniProt P13725 26-221, looked up)
Oncostatin-M: AAIGSCSKEYRVLLGQLQKQTDLMQDTSRLLDPYIRIQGLDVPKLREHCRERPGAFPSEETLRGLGRRGFLQTLNATLGCVLHRLADLEQRLPKAQDLERSGLNIEDLEKLQMARPNILGLRNNIYCMAQLLDNSDTAEPTKAGRGASQPPTPTPASDAFQRKLEGCRFLHGYHRFMHSVGRVFSKWGESPNRSRR
gp100 mean channel fluorescence [4]: 29.5
MITF-A isoform expression [5]: not detectably responsive
MITF-M expression [5]: down-modulates
expression of Melan-A/MART-1, tyrosinase, gp100, TRP-1 and TRP-2 genes [5]: induces down-modulation
